Data from US10842852B2, “Methods of delivering a polypeptide molecule to Otx2 target cells using an Otx2 targeting peptide” (Centre National de la Recherche Scientifique, priority 2009, dated 2020).
Entries after “also recorded” stand apart in the source; their conditions may differ. Ends that are not written are not given here.

What was measured:
retinal ganglion neurons [1] = assay: Survival of retinal ganglion neurons after NMDA injection into the eye (Brn3A mRNA, quantitative RT-PCR); format: in vivo, C57 B16 mice; details: mice, after 4 days
Procedure: C57 B16 mice received, in the right eye, 1 μl of injection buffer (PBS or 9‰ NaCl) containing either 1 mM of NMDA, or 1 mM of NMDA supplemented with 30 ng of the chimeric polypeptide, and in the left eye, the same volume of injection buffer, without additive.
The survival of the ganglion neurons was determined by measuring the level of expression of Brain 3A (Brn3A), a transcription factor which, in the retina, is specifically expressed in the ganglion neurons (Xiang et al., J. Neurosci., 15, 4762-4785, 1995).
After 4 days, the animals are sacrificed, the retinas are removed, and the mRNA is extracted therefrom.
The level of expression of Bm3A mRNA was determined by quantitative RT-PCR using the hypoxanthine phosphoribosyltransferase (HPRT) gene as reference gene, and the ratio between the expression of the Bm3A mRNA in the right eye and in the left eye was calculated.
The results are illustrated by FIG. 5. The additives used are indicated along the x-axis; the ratio between the amounts of Brn3A mRNA (standardized relative to the HPRT mRNA) in the right eye and in the left eye is indicated along the y-axis.

[2] = tested on: binding of AP-Nt-Otx2 to bipolar cells and ganglion cells; assay: Antagonism of AP-Nt-Otx2 binding to sections of retinas by peptides; details: 2 μg/ml of peptide
Procedure: In order to verify that the RK-Otx2 peptide indeed had the same binding specificity as AP-Nt-Otx2, the ability of the RK-Otx2 and AA-Otx2 polypeptides to antagonize the binding of AP-Nt-Otx2 was tested. The test for binding of AP-Nt-Otx2 to sections of retinas was carried out as described above, with the exception that the incubation of the supernatant containing AP-Nt-Otx2 was carried out in the presence of 2 μg/ml of the RK-Otx2 peptide or of the AA-Otx2 peptide.

[3] = tested on: endogenous transfer of Otx2 to cells of the visual cortex; assay: Infusion of peptides into the right visual cortex of adult mice, count of cells expressing Otx2; format: in vivo; details: for number of cells expressing Otx2: adult mice, 0.25 mg/ml, 1 μl/h for 7 days into right visual cortex, infused vs control hemisphere
Procedure: For this purpose, the RK-Otx2 peptide (0.25 mg/ml), the AA-Otx2 peptide (0.25 mg/ml), or PBS buffer, combined with polysialic acid (0.25 mg/ml, in order to enable diffusion of the peptides and to avoid nonspecific binding thereof to neurons expressing polysialic acid at their surface), were slowly infused (1 μl/h) for 7 days into the right visual cortex of adult mice, using osmotic minipumps (Alzet 1003D, Alza) connected to stereotaxically implanted cannulas (Hensch et al., Science, 282, 1504-8, 1998; Fagiolini & Hensch, Nature, 404, 183-6, 2000). At the end of the infusion, the mice are perfused with 4% PFA, and brain sections (25 μm) are cut in order to study the localization of Otx2 and that of the RK-Otx2 peptide. Otx2 is visualized using a rat anti-Otx2 monoclonal antibody diluted to 1/200 (Sugiyama et al., Cell, 134, 508-20, 2008), followed by a donkey anti-rat antibody labeled with Alexa 488 (Molecular Probes), diluted to 1/2000. The RK-Otx2 peptide is visualized using streptavidin labeled with Cy5.
The cells expressing Otx2 were counted over a surface area of 700×350 μm encompassing layers I/II and IV of the binocular zone of the visual cortex.
It was verified, by Sytox green labeling, that the infusion had no effect in itself on the number of cells. In order to be sure that the decrease in the number of cells expressing Otx2 was not due to cell death, an infusion of this peptide was carried out according to the protocol described above, and the number of cells expressing Otx2 was measured 8 days after the end of the infusion.

retinal ganglion neurons [4] = details: previously shown, application PCT/FR 2009/000031; cited from earlier work
[5] = tested on: binding of AP-Nt-Otx2 to its target cells of the cerebral cortex; assay: Blocking of AP-Nt-Otx2 binding to cortical target cells on adult mouse brain sections; details: whole Otx2 1 μg/ml, peptides 2 μg/ml
Procedure: The interaction, with the cells of the cerebral cortex, of the AP-Otx2, AP-Nt-Otx2, AP-Hd-Otx2 and AP-HdAA-Otx2 fusion proteins ([…] a variant of AP-Nt-Otx2 in which the RK amino acid doublet has been replaced with the AA doublet), alone (culture supernatant diluted to 1/20th) or in the presence of a whole Otx2 (1 μg/ml) or of the RK-Otx2 or AA-Otx2 peptides (2 μg/ml), was tested on cryostat sections of adult mouse brains, using the protocol described in example 1 above.

[6] = tested on: retinal ganglion neurons (RGCs) and bipolar cells on sections of retina; assay: Binding test of AP fusion proteins and biotinylated peptides on sections of retina; details: supernatants diluted to 1/20, 2 hours at room temperature, alkaline phosphatase detection
Procedure: The sequences encoding the human Otx2 protein or encoding the fragments tested were cloned into the vector pAPtag-5 (GenHunter), in frame with the sequence encoding alkaline phosphatase. The various constructions carried out are represented diagrammatically in FIG. 1. HEK 293 cells cultured in culture dishes 10 cm in diameter were transfected with 10 μg of each of the vectors constructed, purified beforehand, using Lipofectamine 2000 (Invitrogen) according to the manufacturer's instructions. The transfected cells were incubated for 48 hours in DMEM/F12, supplemented with 10% of fetal bovine serum (FCS). The supernatant was collected, centrifuged at 100×g for 5 minutes and stored at −80° C. This supernatant is used, without purification, for testing the binding of the chimeric proteins on sections of retina. […]
Biotinylated peptides corresponding to various fragments of the N-terminal domain+homeodomain portion of Otx2 were synthesized and the binding thereof to sections of retina, prepared as described above, was tested. The incubation of the peptides with the sections of retina was carried out under the same conditions as those described above, and then the sections bearing the bound peptides were incubated with alkaline phosphatase-labeled streptavidin, and the alkaline phosphatase activity was detected as described above.

[7] = tested on: plasticity of the visual cortex; assay: Ocular dominance plasticity after 4 days monocular deprivation, single-unit extracellular electrophysiology; format: in vivo; details: adult mice; for ocular dominance induced by monocular deprivation: 4 days monocular deprivation after treatment
Procedure: The RK-Otx2 peptide or the AA-Otx2 peptide was infused in adult mice (therefore after closing of the critical period of plasticity), as described in example 4 above. Chondroitinase-ABC, or the injection buffer (deionized water+0.1% BSA), were injected (0.4 μl for each injection) at 3 sites surrounding the visual cortex (AP lambda, LM 1.5 mm; AP lambda, 4.0 mm; AP+1.5 mm; LM 2.5 mm) at two different depths (300 and 500 μm).
After infusion of the peptides or injection of chondroitinase ABC, the mice are subjected to monocular deprivation for 4 days, and the responses to visual stimuli are then measured by single-unit extracellular electrophysiology. The electrophysiology recordings are carried out under nembutal/chlorprothixene anesthesia using standard techniques (Gordon & Stryker, J Neurosci, 16, 3274-86, 1996; Mataga et al., Neuron, 44, 1031-41, 2004). 5 to 7 single-unit recordings were carried out for each mouse, on both sides of the medial-lateral axis of the primary visual cortex, in order to cover the monocular zone and the binocular zone, and to avoid sampling biases. Cell dominance scores were assigned to the cell responses, using a 7-point classification system (Wiesel & Hubel, J Neurophysiol, 26, 978-93, 1963) (Gordon & Stryker, J Neurosci, 16, 3274-86, 1996). The ocular dominance in the binocular zone was calculated for each mouse according to a contralateral bias index (CBI), determined as follows:
(CBI): [(n1−n7)+⅔(n2−n6)+⅓(n3−n5)+N]/2N, where N=total number of cells and nx=number of cells corresponding to an ocular dominance score of x.
This weighted mean of the bias in favor of one or other eye can range from 0, for complete ipsilateral dominance, to 1, for complete contralateral dominance.

[8] = tested on: parvalbumin neurons of the visual cortex; assay: WFA labeling and parvalbumin expression in visual cortex after peptide infusion; format: in vivo; details: adult mice
Procedure: In addition, treated mouse brain frontal sections were prepared, as described in example 4 above, in order to determine the influence of the RK-Otx2 peptide on parvalbumin neurons. The sections were labeled either with WFA, as described in example 3, or using a mouse anti-parvalbumin monoclonal antibody ( 1/500, Sigma-Aldrich), which was visualized using a donkey anti-mouse antibody labeled with Cy3. The labeled cells were quantified as described in example 4.

[9] = tested on: GAGs of the perineuronal net associated with parvalbumin neurons; assay: Chondroitinase ABC treatment of adult mouse brain sections: WFA labeling and AP fusion protein binding; details: brain sections incubated 24 hours with chondroitinase ABC 2 U/ml
Procedure: In order to determine whether the perineuronal net associated with parvalbumin neurons was involved in the binding between AP-Nt-Otx2 and its target cells, the binding of AP-Otx2 was tested on cryostat sections of adult mouse brains fixed with methanol, and then incubated for 24 hours in the presence of chondroitinase ABC (2 U/ml) in a buffer containing 50 mM Tris [pH 8.0], 40 mM of sodium acetate, 0.1% BSA and protease inhibitors. In parallel, the sections, untreated or treated with chondroitinase ABC, were incubated with 0.01 mg/ml of Wisteria floribunda agglutinin lectin (WFA; Sigma-Aldrich), which binds to the GAGs of the perineuronal net, and which is labeled with FITC.

With `CN[C@H](CC(=O)O)C(=O)O` [NMDA, N-methyl-D-aspartate, reference compound] the “decrease in the amount of ganglion neurons” value (retinal ganglion neurons [1]; 1 μl of 1 mM NMDA alone into right eye, Brn3A mRNA) was “approximately 60%”.
For “AAQRRERTTFTRAQL (Targeting peptide inactive mutant) [AA-Otx2]”, the “blocking of the binding of AP-Nt-Otx2 to the bipolar cells and ganglion cells” value [2] was “has no effect on this binding” and the “number of cells expressing Otx2” value [3] was “only a small, insignificant reduction”.
For “Otx2: Orthodenticle homolog 2, homeoprotein containing a bicoid-type homeodomain”, the “protection of retinal ganglion neurons against the toxic effects of NMDA” value (retinal ganglion neurons [4]) is listed as “protects retinal ganglion neurons against the toxic effects of N-methyl-D-aspartate (NMDA)” and the “blocking of the binding of AP-Nt-Otx2 to its cortical target cells” value [5] is listed as “block the binding of AP-Nt-Otx2 to its target cells”.
With “RKQRRERTTFTRAQL (also: biotin (position not given here)) [RK-Otx2]” the “binding to retinal cells” value [6] was “has the same binding specificity as the AP-Otx2 and AP-Nt-Otx2 fusion proteins; also recorded: binds, like AP-Nt-Otx2, to the ganglion and bipolar cells”, the “ocular dominance induced by monocular deprivation” value [7] was “induces an ocular dominance” and the “contralateral bias index (CBI)” value ([7]; after peptide infusion and 4 days monocular deprivation, decrease from 0.7) was 0.57. The “blocking of the binding of AP-Nt-Otx2 to the bipolar cells and ganglion cells” value [2] was “blocks the binding of AP-Nt-Otx2 to the bipolar cells and to the ganglion cells”, the “blocking of the binding of AP-Nt-Otx2 to its cortical target cells” value [5] was “block the binding of AP-Nt-Otx2 to its target cells” and the “expression of the sites for the binding of WFA and of parvalbumin” value ([8]; after peptide infusion) was “decreases the expression of the sites for the binding of WFA, and also that for parvalbumin”. The “decrease in the number of cells surrounded by sites for the binding of WFA” value ([8]; infused vs control hemisphere) was 51.3%, the “decrease in the number of parvalbumin-positive cells” value ([8]; infused vs control hemisphere) was 56.2% and the “amount of peptide detected in the visual cortex” value ([3]; 8 days after the end of infusion) was “only very small amounts”. The “number of cells expressing Otx2 in the treated hemisphere” value ([3]; 8 days after the end of the infusion) was “restored to the level of that of the control hemisphere” and the “number of cells expressing Otx2” value [3] was “significantly reduces the number of cells expressing Otx2”.
With “chimeric polypeptide: amino acids 1-97 of Otx2 (N-terminal domain and homeodomain) fused with the VP16 trans-activator domain of the herpes virus (SEQ ID NO: 4) (MLGDGDSPGPGFTPHDSAPYGALDMADFEFEQMFTDALGIDEYGG; VP16 transactivator domain)” the “protection of ganglion neurons against the toxic effects of NMDA (Brn3A mRNA ratio right eye/left eye)” value (retinal ganglion neurons [1]; 1 μl into right eye, 1 mM NMDA plus 30 ng chimeric polypeptide) was “effectively protects the ganglion neurons against the toxic effects of the NMDA”.
With chondroitinase ABC the “ocular dominance induced by monocular deprivation” value [7] was “as in those treated with the chondroitinase ABC”, the “effect of chondroitinase ABC treatment on binding of the AP fusion protein” value [9] was “abolishes the binding of AP-Nt-Otx2” and the “effect on GAGs of the perineuronal net (WFA labeling)” value [9] was “destroys the GAGs of the perineuronal net”.
